# Laboratory results from US7569208B2, “Diagnostic agents for pancreatic exocrine function” (Tokyo Gas Company Limited, priority 1999, dated 2009).
# Tests used:
# [1] = test system: pancreatic exocrine function; experiment: 13C breath test after oral administration in olive oil to chronic pancreatitis and control rats (GC-MS); assay type: in vivo, rat
# Description: A ^13C-FDL breath test was carried out wherein ^13C-FDL was orally administered to chronic pancreatitis and control rats and the time course of the ^13C concentration in the exhaled CO2 after the administration was measured.
# (§1) According to Mundlos et al. (Mundlos et al., Pancreas, 1:29 (1986)), the chronic pancreatitis rats were prepared by injecting oleic acid into the pancreatic duct of Wistar male rats of 5 weeks old and kept for 3 weeks. Rats in which midline incision was made on the abdomen were used as the control.
# The chronic pancreatitis and control rats of 8 weeks old, which fasted overnight, were fixed without anesthesia in a rat holder for a microwave irradiation apparatus. The breath was collected at a rate of about 100 to 300 ml/min using a CO2 meter (CAPSTER-100) to monitor the CO2 concentration. […]
# The breath was taken out as a sample immediately before the administration and at every hour for 5 hours after the administration and the ^13C concentration in the exhaled CO2 was analyzed by a gas chromatography-mass spectrometer (GC-MS). The analytic conditions for GC-MS are as follows. The CO2 concentration in the collected breath was held at 3±0.5%. GC-MS conditions:
# Assuming that the isotopic abundance of oxygen is the same as that which is naturally occurring, ^13C concentration was calculated from the peak areas of the ions m/z=45 and 46 according to the following equation: […]
# Δ^13C (‰) was calculated from the ^13C concentration in the exhaled CO2 at each time point (^13C tmin) and the ^13C concentration in standard CO2 (^13C std) according to the following equation: Δ^13C (‰)=[(^13C tmin−^13C 0 min)/^13C std]×1000 12.2 Results
# [2] = Solubility / precipitation of phenylalanine in distilled water with or without hydroxypropyl-β-cyclodextrin; assay type: physicochemical; conditions: 299 mg of [1-^13C]-phenylalanine in 5 ml distilled water, dissolved at 85° C., cooled to 25° C.
# Excerpt: The increase of solubility of phenylalanine in the presence of hydroxypropyl-β-cyclodextrin confirmed the formation of (1-^13C]-phenylalanine/hydroxypropyl-β-cyclodextrin inclusion complex.
# [3] = at 25° C.; cited from earlier work
# [4] = test system: pancreatic exocrine function; experiment: 13C breath test after oral administration to oleic acid-induced chronic pancreatitis and control rats (13CO2 analyzer); assay type: in vivo, rat; conditions: for Δ^13C (‰) value in exhaled CO2: 75 mg/kg oral, at 10 minutes
# Description: ^13C-labeled cyclodextrin breath test was carried out wherein ^13C-labeled cyclodextrin prepared in Example 1 was orally administered to chronic pancreatitis and control rats and the time course of the ^13C concentration in the exhaled CO2 after the administration was measured.
# as §1
# The chronic pancreatitis and control rats of 8 weeks old, which fasted overnight, were fixed without anesthesia in a rat holder for a microwave irradiation apparatus. The breath was collected at a rate of about 100 to 300 ml/min using a stroke pump (Variable Stroke Pump VS-500, Shibata Kagaku Kogyo) and introduced directly to a flow cell of a ^13CO2 analyzer EX-130S (Nihon Bunko) to measure ^13C atom % and the carbon dioxide gas concentration continuously. A Perma Pure drier (MD-050-12P, Perma Pure Inc.) was set between the rat holder and the stroke pump to remove out water vapor in the breath. After the CO2 concentration was stabilized, the rat was once removed out of the rat holder and an aqueous solution of ^13C-labeled cyclodextrin was administered (75 mg/kg, 5 ml/kg) into the stomach using an oral sonde.
# Δ^13C (‰) was calculated from the ^13C concentration in the exhaled CO2 at each time point (^13C tmin) and the ^13C concentration in standard CO2 (^13C std) according to the following equation: Δ^13C (‰)=[(^13C tmin−^13C 0 min)/^13C std]×1000
compound,measurement,setting,value
^13C-dilaurylfluorescein [^13C-FDL],Δ^13C (‰) values of chronic pancreatitis rats compared with control rats,"[1]; 160 mg/kg oral in olive oil, at each time point for 5 hours (FIG. 10)",smaller than the control rats
same,Δ^13C (‰) value in exhaled CO2,"[1]; chronic pancreatitis rats, 160 mg/kg oral in olive oil, at 3 hours",42.0±21.3 ‰
same,Δ^13C (‰) value in exhaled CO2,"[1]; chronic pancreatitis rats, 160 mg/kg oral in olive oil, at 5 hours",95.4±47.1 ‰
same,Δ^13C (‰) value in exhaled CO2,"[1]; control rats, 160 mg/kg oral in olive oil, at 3 hours",153.3±22.8 ‰
same,Δ^13C (‰) value in exhaled CO2,"[1]; control rats, 160 mg/kg oral in olive oil, at 5 hours",236.3±12.4 ‰
^13C-dioctanoylfluorescein [^13C-FDO],Δ^13C (‰) values of chronic pancreatitis rats compared with control rats,"[1]; 200 mg/kg oral in olive oil, at each time point for 5 hours (FIG. 11)",smaller than the control rats
same,Δ^13C (‰) value in exhaled CO2,"[1]; chronic pancreatitis rats, 200 mg/kg oral in olive oil, at 1 hour",2.7±3.8 ‰
same,Δ^13C (‰) value in exhaled CO2,"[1]; chronic pancreatitis rats, 200 mg/kg oral in olive oil, at 3 hours",18.4±12.1 ‰
same,Δ^13C (‰) value in exhaled CO2,"[1]; chronic pancreatitis rats, 200 mg/kg oral in olive oil, at 4 hours",15.2±13.4 ‰
same,Δ^13C (‰) value in exhaled CO2,"[1]; chronic pancreatitis rats, 200 mg/kg oral in olive oil, at 5 hours",20.6±11.2 ‰
same,Δ^13C (‰) value in exhaled CO2,"[1]; control rats, 200 mg/kg oral in olive oil, at 1 hour",46.3±11.5 ‰
same,Δ^13C (‰) value in exhaled CO2,"[1]; control rats, 200 mg/kg oral in olive oil, at 3 hours",60.6±12.7 ‰
same,Δ^13C (‰) value in exhaled CO2,"[1]; control rats, 200 mg/kg oral in olive oil, at 4 hours",88.7±8.2 ‰
same,Δ^13C (‰) value in exhaled CO2,"[1]; control rats, 200 mg/kg oral in olive oil, at 5 hours",73.6±14.1 ‰
"N[C@@H](C[13c]1ccccc1)C(=O)O [(1-^13C]-phenylalanine, [1-^13C]-phenylalanine]",precipitation of phenylalanine when the solution was allowed to cool to 25° C.,[2],phenylalanine was precipitated
N[C@@H](Cc1ccccc1)C(=O)O [phenylalanine],solubility,[3],148 mg/5 ml
galactosyl ^13C-maltohexaose [galactosyl ^13C-labeled maltohexaose],Δ^13C (‰) value in exhaled CO2,[4]; chronic pancreatitis rats,18.9 ± 17 ‰
same,Δ^13C (‰) value in exhaled CO2,[4]; control rats,95.6 ± 42.4 ‰
same,increase in Δ^13C (‰) value of chronic pancreatitis rats compared with control rats,"[4]; galactosyl ^13C-maltohexaose 75 mg/kg oral, for 30 minutes (FIG. 4)",smaller than the control rats
